Values of other authors as cited in patent US20260108532A1, “COMPOSITION FOR PREVENTING HEART DISEASES CAUSED BY PULMONARY HYPERTENSION AND TREATING HEART, AND FUNCTIONAL FORMULATION COMPRISING SAME” (CARESIDE CO., LTD., priority 2023, published 2026).

Experiments:
[1] = potassium-sparing diuretic such as spironolactone
[2] = test system: dogs with subclinical myxomatous mitral valve disease (MMVD); conditions: compared with placebo-administered group
[3] = test system: dogs with subclinical (asymptomatic) CMVI; conditions: at 35 days of administration, compared to placebo administered group
[4] = dogs; long-term administration

Compound: CC(=O)S[C@@H]1CC2=CC(=O)CC[C@]2(C)[C@H]2CC[C@@]3(C)[C@@H](CC[C@@]34CCC(=O)O4)[C@H]12 [spironolactone, Spironolactone]
- diuretic effect as share of the efficacy of the loop diuretic [1]: ~10%
- increase in heart size and cardiac biomarker concentration on cardiac ultrasound [2]: much smaller

Compound: COc1ccc(-c2nc3ccc(C4=NNC(=O)CC4C)cc3[nH]2)cc1 (stereo not shown) [pimobendan, Pimobendan]
- LVIDd and LA/Ao on imaging diagnosis [3]: decreased

Compound: Cc1cccc(Nc2ccncc2S(=O)(=O)NC(=O)NC(C)C)c1 [torsemide, Torsemide]
- ceiling effect [4]: almost no ceiling effect
